Experimental findings from patent US20240285769A1, “INJECTABLE, BIODEGRADABLE AND REMOVABLE POLYMER BASED DRUG SUSPENSION FOR ULTRA-LONG-ACTING DRUG DELIVERY” (The University of North Carolina at Chapel Hill, priority 2021, published 2024) are described below.

Structures are written as SMILES.

Series [1] in a line: Preparation and optimization of drug suspension formulations. Type of series: physicochemical. Here is the method: The polymer based drug suspensions were prepared by: (1) Placebo formulation: 50:50 Poly(DL-lactide-co-glycolide) (PLGA), MW 10 or 27 kDa, or Poly(lactic acid) (PLA) MW 10 kDa, was mixed with N-methyl-2-pyrrolidone (NMP) or a combination of NMP and DMSO (e.g. 1:1 v/v) at various weight ratios of PLGA/solvent (w/w) and allowed to dissolve by continuous mixing at room temperature (Placebo). […] (2) Drug loading: […] (3) Depot formation: A sample from the resulting drug-loaded suspension formulation (30 μL, 30±3 mg) was injected into 200 mL of 0.01 M PBS pH 7.4 using a pipette and incubated at 37° C. for 24 h to produce a spherical implant, as an example. […] Of importance, but without being limited to any particular theory or mechanism of action, is the ratio of the polymer:solvent:drug that achieves high drug loading in a stable polymeric suspension formulation and which is correlated to the drug's saturation solubility in the solvent system.

Series [2] in a line: In vitro drug release studies of ISFIs. Format: physicochemical. The settings on record: ISFI suspension 1:4 PLGA/(NMP:DMSO), 290 mg/g. Here is the method:
Sample aliquots (1 mL) were collected at various time points and replaced with fresh release medium. The release medium was completely removed and replaced with fresh medium every week to maintain sink conditions. Drug concentration in the release samples was quantified by HPLC using the method described above. Cumulative drug release was calculated from the HPLC analysis and normalized to the total mass of drug in the implant. All experiments were performed in quadruplicate. ISFIs were prepared with 1:2 w/w PLGA:(NMP/DMPS 1:1) (PLGA MW 27 kDa, 50:50 LA/GA). […] To investigate the effect of polymer MW on CAB release kinetics, two CAB suspension ISFIs were prepared using PLGA (50:50 LA/GA) with MW of 10 kDa and 27 kDa. CAB was loaded at a constant concentration of 250 mg/g as a stable suspension formulation in a 1:2 PLGA/solvent (solvent=NMP/DMSO 1:1 w/w). […] 55 μg/d compared to 13.53 μg/d for PLGA MW 27 kDa. […] The effect of formulation composition and addition of rate controlling polymers like star-PLGA (5-arm 50:50 LA/GA PLGA MW 54 kDa) on drug release kinetics were also investigated. Three formulations were prepared using NMP/DMSO (1:1) as a co-solvent system, PLGA (50:50 LA/GA MW 27 kDa) and PLGA/star-PLGA (9:1 w/w) polymer combination. CAB was loaded at a constant concentration of 300 mg/g in all three formulations. […]

Consider `Cn1c(Cn2ccc(C(F)(F)F)c(Oc3cc(Cl)cc(C#N)c3)c2=O)n[nH]c1=O` [DOR, Doravirine], for which the “suspension formation when loaded above saturation concentration in PLGA/solvent placebo” value in series [1] is listed as “formed stable syringeable formulations”. In series [1] (PBS, pH 7.4, 37° C.), the “depot formation when injected into aqueous release medium” value is on record as “formation of stable depots”. Besides, in series [2] (PBS 37° C.), the “burst release in 24 h” value is reported as < 2%. In series [2] (last timepoint analyzed), the “drug release at d3” value turned out to be 3%.
